Values belong to the compound of their own block, whether it stands above or below them.
What was measured:
ARDS model [1] = assay: Dynamic lung compliance after pulmonary alveolar washing, ventilated ARDS model rat; type: in vivo; details: for lung compliance after pulmonary alveolar washing: 20 ml/kg, 5 times within 2 minutes; for time it took to recover to 0.9 (lung compliance before washing set as 1.0): average
Description: When the respiratory and circulatory dynamics of the rat were stable under artificial ventilation, an injection/suction operation using 20 ml/kg of a pulmonary alveolar washing solution (physiological saline) through the tracheal cannula was conducted […] consecutively within 2 minutes. […] Thus, an ARDS model whose pulmonary alveoli were washed with physiological saline was produced. The pulmonary alveolar washing operation means production of a respiratory distress syndrome (ARDS) model having decreased lung compliance.
(§1) The above ventilation was conducted by inverse ratio ventilation without using PEEP. The ventilation was conducted using ambient air (inhaled oxygen concentration FiO2: 0.21) without oxygen administration. The intra-airway pressure and the partial pressure of oxygen in the arterial blood (PaO2) were measured over time. Influence of the polyamines was analyzed, where dynamic lung compliance (=a tidal volume/a change in intra-airway pressure) (expression 1) was used as a measure of the distensibility of the lung, and PaO2/FiO2 (P/F ratio)<300 was used as a criterion for gas exchange dysfunction.
(§2) When the respiratory and circulatory dynamics of the rat were stable under artificial ventilation, 20 ml/kg of a pulmonary alveolar washing solution (physiological saline) was injected/suctioned consecutively 5 times within 2 minutes through the tracheal cannula. […] Thus, an ARDS model whose pulmonary alveoli were washed with physiological saline was produced.
as §2, with “(physiological saline containing 0.5 mM of Spm)” for “(physiological saline)”, “with 0.5 mM of Spm” for “with physiological saline”
as §1, with “polyamine” for “polyamines”, “compliance” for “compliance (=a tidal volume/a change in intra-airway pressure) (expression 1)”, “the P/F ratio<300” for “PaO2/FiO2 (P/F ratio)<300”
as §2, with “(physiological saline containing 1 mM of Spm)” for “(physiological saline)”, “with 1 mM of Spm” for “with physiological saline”
When the respiratory and circulatory dynamics of the rat were stable under artificial ventilation, 20 ml/kg of a pulmonary alveolar washing solution (0.3 mg/ml of a bovine lung extract artificial surfactant; the bovine lung extract artificial surfactant was formulated by dissolving Surfacten (trade name), manufactured by Mitsubishi Tanabe Pharma Corporation, in physiological saline to a concentration of 0.3 mg/ml, which is 1/100 of the concentration that is normally for administration to a preterm infant) was injected/suctioned consecutively 5 times within 2 minutes through the tracheal cannula. […] Note that it was confirmed that no polyamines are detected in the bovine lung extract artificial surfactant. […]

ARDS model [2] = assay: Gas exchange dysfunction occurrence rate (P/F ratio<300) after pulmonary alveolar washing; type: in vivo, rat
Description: Ventilation was conducted by inverse ratio ventilation without using PEEP. The ventilation was conducted using ambient air (inhaled oxygen concentration FiO2: 0.21) without oxygen administration. The intra-airway pressure and the partial pressure of oxygen in the arterial blood (PaO2) were measured over time. Influence of the polyamine was analyzed, where dynamic lung compliance was used as a measure of the distensibility of the lung, and the P/F ratio<300 was used as a criterion for gas exchange dysfunction. […] Influence of Spm administered to pulmonary alveoli on the rate of occurrence of gas exchange dysfunction was analyzed, where the P/F ratio<300 was used as a criterion for gas exchange dysfunction. […] Cases (death) that death occurred before the measurement times, i.e., arterial blood sampling was not conducted, were counted as the case of occurrence of gas exchange dysfunction.

[3] = Surface tension of a hanging droplet, Young-Laplace method (curve fitting); type: physicochemical; details: for surface tension, polyamine alone: 0-10000 msec; for surface tension reduction effect, polyamine alone: without surfactant; for surface tension in 0.3 mg/ml bovine lung surfactant: 1 mM of polyamine, 10 seconds after production of hanging droplet
Description: Surface tension was measured by the Young-Laplace method (curve fitting) using a contact angle meter (B100, manufactured by Asumi Giken, Limited), on a droplet formed at the tip of a 20-gauge straight needle.
Tensiometer: contact angle meter (B100, manufactured by Asumi Giken, Limited)
Surface tension measurement method: Young-Laplace method (curve fitting)
Hanging droplet production method: a maximum size of droplet not to drop was produced at the tip of a 20-gauge straight needle (an autodispenser was used)
Imaging of hanging droplet: imaging was performed using a CCD camera
Bovine lung surfactant: a commercially available bovine lung extract artificial surfactant (Surfacten (trade name), manufactured by Mitsubishi Tanabe Pharma Corporation) was adjusted to a concentration of 30 mg/ml using physiological saline according to the package insert. […] In the drawings, the formulated surfactant solution is indicated by “30 mg/ml surf.”
10-fold diluted bovine lung surfactant: a commercially available bovine lung extract artificial surfactant (Surfacten (trade name), manufactured by Mitsubishi Tanabe Pharma Corporation) was adjusted to a concentration of 3 mg/ml using physiological saline. In the drawings, the formulated surfactant solution is indicated by “3 mg/ml surf.”
100-fold diluted bovine lung surfactant: a commercially available bovine lung extract artificial surfactant (Surfacten (trade name), manufactured by Mitsubishi Tanabe Pharma Corporation) was adjusted to a concentration of 0.3 mg/ml using physiological saline. Pulmonary surfactant was diluted with physiological saline, i.e., the resultant solution mimics the state of surfactant in a lung affected by ARDS. In the drawings, the formulated surfactant solution is indicated by “100-fold diluted bovine lung surfactant,” “0.3-mg/ml bovine lung surfactant,” “0.3 mg/ml surf,” or “ 1/100 Surf.”
1000-fold diluted bovine lung surfactant: a commercially available bovine lung extract artificial surfactant (Surfacten (trade name), manufactured by Mitsubishi Tanabe Pharma Corporation) was adjusted to a concentration of 0.03 mg/ml using physiological saline. In the drawings, the formulated surfactant solution is indicated by “0.03 mg/ml surf.”
Polyamine-containing 100-fold diluted bovine lung surfactant:
The solution was formulated using a commercially available polyamine chloride. […]

lung field = details: rat d: washed with physiological saline, then physiological saline containing 5 mM of Spm; applied pressure 20 cm H2O
Description: Plain X-ray imaging and X-ray CT imaging were performed, with an air pressure (0 and 20 cm H2O) exerted through a tracheal cannula, on rats that were euthanized after pulmonary alveolar washing or rats that were subjected to pulmonary alveolar washing immediately after euthanization.
A rat a was a control that was not subjected to pulmonary alveolar washing. Specifically, a tracheal cannula was inserted into a rat under general anesthesia, and the rat was euthanized without pulmonary alveolar washing.
A rat b was subjected to pulmonary alveolar washing with physiological saline containing 1 mM of Spm. Specifically, a tracheal cannula was inserted into a rat under general anesthesia, and after the rat was euthanized, 20 ml/kg of a pulmonary alveolar washing solution (physiological saline containing 1 mM of Spm) was injected/suctioned consecutively 5 times within 2 minutes through the tracheal cannula, and the washing solution remaining in the trachea was suctioned out.
A rat c was subjected to pulmonary alveolar washing with physiological saline. Specifically, a tracheal cannula was inserted into a rat under general anesthesia. […]

lung affected by ARDS = details: transairway administration of 5 mM of Spm, 20 ml/kg, 5 times, after first washing with physiological saline
Description: Specifically, influence of transairway administration of 5 mM of Spm to an ARDS model animal on lung compliance was analyzed.
A tracheal cannula was inserted into a rat under general anesthesia, and then euthanized. Immediately after that, artificial ventilation was conducted for 30 seconds, and lung compliance before washing that is calculated based on intra-airway pressure was set as 1.0 (“before washing” on the left slide of FIG. 10). Following this, a lung affected by ARDS was produced. Specifically, an injection/suction operation was conducted 5 times consecutively within 2 minutes using 20 ml/kg of physiological saline through the tracheal cannula. After the washing solution remaining in the tracheal cannula was suctioned out, artificial ventilation was conducted for 30 seconds, and the lung compliance of the lung affected by ARDS was calculated and compared with that of the normal lung (“first pulmonary alveolar washing” at the center of FIG. 10). […] After the washing solution remaining in the tracheal cannula was suctioned out, artificial ventilation was conducted for 30 seconds, and the lung compliance calculated based on intra-airway pressure (“second pulmonary alveolar washing” (open column) on the right side of FIG. 10) was compared with that of the lung affected by ARDS. […]

SMILES: NCCCCCCN [diaminohexane]
surface tension in 0.3 mg/ml bovine lung surfactant [3]: reduction in surface tension | surface tension, polyamine alone ([3]; 1 mM without surfactant): 62 mN/m | surface tension reduction effect, polyamine alone [3]: does not have the surface tension reduction effect

SMILES: NCCCCN [Put, putrescine]
surface tension reduction effect in diluted surfactant environment ([3]; Put-containing 0.3 mg/ml bovine lung surfactant, 60 seconds after formation of hanging droplet): observed on several tens of seconds after formation of a hanging droplet | surface tension reduction effect, polyamine alone [3]: does not have the surface tension reduction effect

Continued, in another order:

surface tension, polyamine alone ([3]; 0.5 mM of Spm without surfactant): 64 mN/m | surface tension of 0.3 mg/ml surf ([3]; presence of 0.5, 1 and 2 mM of Spm): reduced surface tension
SMILES: NCCCNCCCCNCCCN [Spm, spermine]
lung compliance after pulmonary alveolar washing (ARDS model [1]; physiological saline containing 0.5 mM of Spm): lung compliance subsequently recovered | lung compliance after pulmonary alveolar washing (ARDS model [1]; physiological saline containing 1 mM of Spm): lung compliance subsequently recovered | effect of improving lung compliance, 1 mM versus 0.5 mM of Spm (ARDS model [1]; until 60 minutes after washing): higher for 1 mM of Spm | time it took to recover to 0.9 (lung compliance before washing set as 1.0) (ARDS model [1]; washing with 0.5 mM of Spm): 60 min | time it took to recover to 0.9 (lung compliance before washing set as 1.0) (ARDS model [1]; washing with 1 mM of Spm): 15 min | gas exchange dysfunction occurrence rate (ARDS model [2]; 20 minutes after washing, 1 mM of Spm): lower than the others | gas exchange dysfunction occurrence rate (ARDS model [2]; 1 hour after washing, Spm-containing physiological saline (0.5 and 1 mM) compared to physiological saline): significantly decreased | surface tension reduction effect, polyamine alone [3]: does not have such a surface tension reduction effect | CT images of lung field (lung field): no wide range of infiltrative shadow was observed | X-ray images of lung field (lung field): the cardiac shadow became clear | lung compliance after second pulmonary alveolar washing (lung affected by ARDS): improved the lung compliance

surface tension reduction effect in diluted surfactant environment ([3]; Spd-containing 0.3 mg/ml bovine lung surfactant): has the surface tension reduction effect
SMILES: NCCCCNCCCN [Spd, spermidine]
surface tension reduction effect, polyamine alone [3]: does not have the surface tension reduction effect

surface tension in 0.3 mg/ml bovine lung surfactant [3]: reduction in surface tension | surface tension, polyamine alone ([3]; 1 mM without surfactant): 63 mN/m
SMILES: CC(=O)NCCCNCCCCN [N1-AcSpd, N1-acetylspermidine]
surface tension reduction effect, polyamine alone [3]: does not have the surface tension reduction effect
